Laboratory results as given in patent publication US4143166A, “7[(2-Hydroxyamino-2-disubstituted phenyl-acetamido)-]3-heterocyclicthio-3-cephem-4-carboxylic acids” (Fujisawa Pharmaceutical Co., Ltd., priority 1975, dated 1979).
Converted amounts (≈) assume the structure as drawn. Where two headings read alike, the source gives them in different places.

Experiments:
Assay type in all cases: cell-based
Sh. flexneri2a = experiment: In vitro antibacterial activity, two-fold agar-plate dilution method (MIC), Sh. flexneri 2a; settings: Shigella flexneri, HI-agar, 37° C., 20 hours, 10^8 viable cells per ml, read-out: minimal inhibitory concentration (MIC)
Description: (§1) In vitro antibacterial activity was determined by the two-fold agar-plate dilution method as described below.
(§2) One loopful of an overnight culture of each test strain in Trypticase-soy broth (10^8 viable cells per ml) was streaked on heart infusion agar (HI-agar) containing graded concentrations of antibiotics, and the minimal inhibitory concentration (MIC) was expressed in terms of μg/ml after incubation at 37° C. for 20 hours.

Sal. Enteritidis = experiment: In vitro antibacterial activity, two-fold agar-plate dilution method (MIC), Sal. Enteritidis; settings: Salmonella enterica, read-out: minimal inhibitory concentration (MIC)
Description: as §1, §2

Ps. aeruginosa721 = experiment: In vitro antibacterial activity, two-fold agar-plate dilution method (MIC), Ps. aeruginosa 721; settings: Pseudomonas aeruginosa, read-out: minimal inhibitory concentration (MIC)
Description: as §1, §2

E coli 341 = experiment: In vitro antibacterial activity, two-fold agar-plate dilution method (MIC), E coli 341; settings: read-out: minimal inhibitory concentration (MIC)
Description: as §1, §2

Kl. pneumoniae 417 = experiment: In vitro antibacterial activity, two-fold agar-plate dilution method (MIC), Kl. pneumoniae 417; settings: Klebsiella pneumoniae, HI-agar, 37° C., 20 hours, 10^8 viable cells per ml, read-out: minimal inhibitory concentration (MIC)
Description: as §1, §2

Pr. mirabilis 525 = experiment: In vitro antibacterial activity, two-fold agar-plate dilution method (MIC), Pr. mirabilis 525; settings: read-out: minimal inhibitory concentration (MIC)
Description: as §1, §2

[1] = Ps. aeruginosa721, HI-agar, 37° C., 20 hours, 10^8 viable cells per ml
[2] = E coli 341, HI-agar, 37° C., 20 hours, 10^8 viable cells per ml
[3] = Proteus mirabilis, Pr. mirabilis 525, HI-agar, 37° C., 20 hours, 10^8 viable cells per ml
[4] = Sal. Enteritidis, HI-agar, 37° C., 20 hours, 10^8 viable cells per ml

SMILES | MIC (Sh. flexneri2a) [µg/mL] | MIC (Sal. Enteritidis; ENTERITIDIS, 20 h) [µg/mL] | MIC (Ps. aeruginosa721; [1]) [µg/mL] | MIC (E coli 341; [2]) [µg/mL] | MIC (Kl. pneumoniae 417) [µg/mL] | MIC (Pr. mirabilis 525; [3]) [µg/mL] | MIC (Sal. Enteritidis; [4]) [µg/mL] | MIC (Ps. aeruginosa721; 20 h) [µg/mL] | MIC (Pr. mirabilis 525; Proteus mirabilis, 525, 20 h) [µg/mL] | MIC (E coli 341; 20 h) [µg/mL]
Cn1nnnc1SCC1=C(C(=O)O)N2C(=O)C(NC(=O)/C(=N\O)c3ccc(O)cc3)C2SC1 (stereo not drawn) [Test Compound (1), Sodium 7-[2-hydroxyimino-2-(4-hydroxyphenyl)acetamido]-3-(1-methyl-1H-tetrazol-5-yl)thiomethyl-3-cephem-4-carboxylate (syn isomer)] | 0.78 | 3.13 | 25 | 1.56 | 3.13 | 1.56 | – | – | – | –
Cn1nnnc1SCC1=C(C(=O)O)N2C(=O)C(NC(=O)/C(=N\O)c3cccc(O)c3)C2SC1 (stereo not drawn) [Test Compound (2), Sodium 7-(2-hydroxyimino-2-(3-hydroxyphenyl)acetamido]-3-(1-methyl-1H-tetrazol-5-yl)thiomethyl-3-cephem-4-carboxylate (syn isomer)] | 0.78 | – | 100 | 0.78 | 0.78 | 1.56 | 1.56 | – | – | –
CC(=O)OCC1=C(C(=O)O)N2C(=O)C(NC(=O)/C(=N\O)c3ccc(O)c(Cl)c3)C2SC1 (stereo not drawn) [Test Compound (3), Sodium 7-[2-hydroxyimino-2-(3-chloro-4-hydroxyphenyl)acetamido]cephalosporanate (syn isomer)] | 3.13 | – | – | 6.25 | 3.13 | 0.39 | 0.78 | 3.13 | – | –
O=C(O)C1=C(CSc2nncs2)CSC2C(NC(=O)/C(=N\O)c3cccc(O)c3)C(=O)N12 (stereo not drawn) [Test Compound (4), 7-[2-Hydroxyimino-2-[3-hydroxyphenyl)acetamido]-3-(1,3,4-thiadiazol-2-yl)thiomethyl-3-cephem-4-carboxylic acid (syn isomer)] | 0.39 (≈ 0.79 µM) | – | 12.5 (≈ 25.3 µM) | 0.78 (≈ 1.58 µM) | 3.13 (≈ 6.34 µM) | 1.56 (≈ 3.16 µM) | 0.39 (≈ 0.79 µM) | – | – | –
Cc1nnc(SCC2=C(C(=O)O)N3C(=O)C(NC(=O)/C(=N\O)c4cccc(O)c4)C3SC2)s1 (stereo not drawn) [Test Compound (5), 7-[2-Hydroxyimino-2-(3-hydroxyphenyl)acetamido]-3-(5-methyl-1,3,4-thiadiazol-2-yl)thiomethyl-3-cephem-4-carboxylic acid (syn isomer)] | 0.39 (≈ 0.768 µM) | – | 6.25 (≈ 12.3 µM) | 0.78 (≈ 1.54 µM) | 0.78 (≈ 1.54 µM) | 3.13 (≈ 6.17 µM) | 0.2 (≈ 0.394 µM) | – | – | –
Cn1nnnc1SCC1=C(C(=O)O)N2C(=O)C(NC(=O)/C(=N\OC(=O)c3ccccc3)c3cccc(O)c3)C2SC1 (stereo not drawn) [Test Compound (6), 7-[2-Benzoyloxyimino-2-(3-hydroxyphenyl)acetamido]-3-(1-methyl-1H-tetrazol-5-yl)thiomethyl-3-cephem-4-carboxylic acid (syn isomer)] | 0.78 (≈ 1.31 µM) | – | 12.5 (≈ 21 µM) | 1.56 (≈ 2.62 µM) | 0.39 (≈ 0.655 µM) | 0.78 (≈ 1.31 µM) | 0.39 (≈ 0.655 µM) | – | – | –
CCOC(=O)O/N=C(\C(=O)NC1C(=O)N2C(C(=O)O)=C(CSc3nnnn3C)CSC12)c1cccc(O)c1 (stereo not drawn) [Test Compound (7), 7-[2-Ethoxycarbonyloxyimino-2-(3-hydroxyphenyl)acetamido]-3-(1-methyl-1H-tetrazol-5-yl)thiomethyl-3-cephem-4-carboxylic acid (syn isomer)] | 1.56 (≈ 2.77 µM) | – | 25 (≈ 44.4 µM) | 3.13 (≈ 5.55 µM) | 0.39 (≈ 0.692 µM) | 0.39 (≈ 0.692 µM) | 0.2 (≈ 0.355 µM) | – | – | –
CC(=O)OCC1=C(C(=O)O)N2C(=O)C(NC(=O)/C(=N\O)c3cccc(O)c3)C2SC1 (stereo not drawn) [Test Compound (8), 7-[2-Hydroxyimino-2-(3-hydroxphenyl)acetamido]cephalosporanic acid (syn isomer)] | 0.78 (≈ 1.79 µM) | 1.56 (≈ 3.58 µM) | 25 (≈ 57.4 µM) | 0.78 (≈ 1.79 µM) | 1.56 (≈ 3.58 µM) | – | – | – | 1.56 (≈ 3.58 µM) | –
NC(=O)OCC1=C(C(=O)O)N2C(=O)C(NC(=O)/C(=N\O)c3cccc(O)c3)C2SC1 (stereo not drawn) [Test Compound (9), Sodium 7-[2-hydroxyimino-2-(3-hydroxyphenyl)acetamido]-3-carbamoyloxymethyl-3-cephem-4-carboxylate (syn isomer)] | 0.78 | – | 6.25 | – | 0.2 | 0.78 | 0.78 | – | – | –
Cn1nnnc1SCC1=C(C(=O)O)N2C(=O)C(NC(=O)/C(=N\O)c3ccc(O)c([N+](=O)[O-])c3)C2SC1 (stereo not drawn) [Test Compound (10), 7-[2-Hydroxyimino-2-(3-nitro-4-hydroxyphenyl)acetamido]-3-(1-methyl-1H-tetrazol-5-yl)thiomethyl-3-cephem-4-carboxylic acid (syn isomer)] | 1.56 (≈ 2.91 µM) | – | – | 3.13 (≈ 5.83 µM) | 0.39 (≈ 0.727 µM) | 0.2 (≈ 0.373 µM) | 0.2 (≈ 0.373 µM) | – | – | –
Cc1nnc(SCC2=C(C(=O)O)N3C(=O)C(NC(=O)/C(=N\O)c4ccccc4)C3SC2)s1 (stereo not drawn) [Test Compound (A), 7-(2-Hydroxyimino-2-phenylacetamido)-3-(5-methyl-1,3,4-thiadiazol-2-yl)thiomethyl-3-cephem-4-carboxylic acid (syn isomer), reference compound] | 6.25 (≈ 12.7 µM) | 6.25 (≈ 12.7 µM) | 50 (≈ 102 µM) | – | 12.5 (≈ 25.4 µM) | 25 (≈ 50.9 µM) | – | – | – | 12.5 (≈ 25.4 µM)
